Measurements taken from US20050169981A1, “Solid compositions comprising ramipril” (priority 2001, published 2005).

Experiment: Stability of capsules stored at 50° C. for one week, degradation products by HPLC
Type: physicochemical
Settings: starting ramipril, before encapsulation and storage
Experimental: For each of the 4 examples, the ingredients in the proportions shown were mixed together. The powder mixture was then passed through a #60 screen and mixed again. The powder mixture was then filled into size 4 two-piece hard gelatin capsules as a net fill of 150 mg per capsules, so that each capsule contained 1.25 mg of ramipril. Capsules of each of the examples were stored at 50° C. for one week and then tested by a high-performance liquid chromatographic method (HPLC) to determine the degradation products as a percentage of the ramipril content.

- level of degradation products in the ramipril used to make the capsules: 0.29%
SMILES: CCOC(=O)[C@H](CCc1ccccc1)N[C@@H](C)C(=O)N1[C@H](C(=O)O)C[C@@H]2CCC[C@@H]21 [ramipril, Ramipril]
